Test results as given in article PMC5324103 (Scientific Reports, 2017).

How the values were obtained:
[1] = target: T1, LXRα (Homo sapiens, UniProt Q13133); assay: LXRα transactivation, luciferase reporter assay in HepG2 cells; assay type: cell-based; details: for EC50: dose-response 1-50 μM, mean ± SE, read-out: LXRα Affinity (EC50); for Emax at 10 µM: compound 10 μM vs GW3965 10 μM (=100%), NA = no activity at 10 μM, read-out: LXRα Efficacy (% vs GW3965)
T1 construct: expressed in transfected cells; host or cells: HepG2
T1 sequence (Q13133 209-447 limits assumed): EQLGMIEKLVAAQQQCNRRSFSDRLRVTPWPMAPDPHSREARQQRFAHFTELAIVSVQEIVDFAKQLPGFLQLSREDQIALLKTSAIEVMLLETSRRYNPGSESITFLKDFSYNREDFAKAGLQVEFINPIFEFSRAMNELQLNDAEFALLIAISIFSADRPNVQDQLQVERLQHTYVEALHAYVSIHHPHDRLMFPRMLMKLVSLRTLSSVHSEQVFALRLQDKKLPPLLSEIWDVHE
Method: Derivatives 4–30 were tested for their activity in a luciferase reporter assay with HepG2 and HEK-293T cells transfected with LXRα,β and GPBAR1, respectively. Table 1 reports the efficacy of tested compounds compared to those of reference compounds, GW3965 for LXRα/β and TLCA for GPBAR1.
Each compound was tested at the concentration of 10 μM and transactivation activity of GW3965 on LXRs and TLCA on CRE (i.e. TGR5/GPBAR1) was considered equal to 100%.
To evaluate LXRα mediated transactivation, HepG2 cells were transfected with 20 ng of the reporter vector p(UAS)5XTKLuc, 100 ng of a vector containing the ligand binding domain of LXRα cloned upstream of the GAL4-DNA binding domain (i.e. pSG5-LXRαLBD-GAL4DBD) and […] pGL4.70 (Promega), a vector encoding the human Renilla gene. To evaluate GPBAR1 mediated transactivation, HEK-293T cells were transfected with 200 ng of human pGL4.29 (Promega), a reporter vector containing a cAMP response element (CRE) that drives the transcription of the luciferase reporter gene luc2P, with 100 ng of pCMVSPORT6-human GPBAR1, and with 100 ng of pGL4.70 Renilla. To evaluate FXR mediated transactivation, HepG2 cells were transfected with 100 ng of human pSG5-FXR, 100 ng of human pSG5-RXR, 200 ng of the reporter vector p(hsp27)-TK-LUC containing the FXR response element IR1 cloned from the promoter of heat shock protein 27 (hsp27) and with 100 ng of pGL4.70 Renilla. At 24 h post-transfection, cells were stimulated 18 h with 10 μM GW3965, TLCA, or CDCA and compounds 4–30 (10 μM). Luciferase activities were assayed and normalized with Renilla activities. Dose-response curves were performed in HepG2 and HEK-293T cells transfected as described above and then treated with increasing concentrations of compounds 4, 5, 8, 9, 12–15, 17, 20, 21, 24, 25, 27, 29, 30 (1, 5, 10, 25 and 50 μM). At 18 h post stimulations, cellular lysates were assayed for luciferase and Renilla activities using the Dual-Luciferase Reporter assay system (E1980, Promega). Luminescence was measured using Glomax 20/20 luminometer (Promega). Luciferase activities (RLU) were normalized with Renilla activities (RRU).

[2] = target: T2, GPBAR1 (Homo sapiens, UniProt Q8TDU6); assay: GPBAR1 transactivation, CRE-luciferase reporter assay in HEK-293T cells; assay type: cell-based; details: dose-response 1-50 μM, mean ± SE of 3 experiments in duplicate, read-out: GPBAR1 Affinity (EC50)
T2 construct: expressed in transfected cells; host or cells: HEK-293T
T2 sequence (Q8TDU6 1-330): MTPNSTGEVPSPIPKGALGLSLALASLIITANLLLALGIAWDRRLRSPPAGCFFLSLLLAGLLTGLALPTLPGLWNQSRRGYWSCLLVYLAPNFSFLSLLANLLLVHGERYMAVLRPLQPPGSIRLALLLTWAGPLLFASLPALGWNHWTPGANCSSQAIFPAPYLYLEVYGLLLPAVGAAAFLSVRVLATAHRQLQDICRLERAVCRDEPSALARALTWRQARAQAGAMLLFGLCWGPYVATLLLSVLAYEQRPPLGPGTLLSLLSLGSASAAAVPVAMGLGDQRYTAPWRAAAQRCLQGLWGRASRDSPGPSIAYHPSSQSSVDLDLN

[3] = tested on: C57BL6 mice; assay: Two-week oral administration to intact C57BL6 mice (serum chemistry, liver histology, liver and ileum gene expression); assay type: in vivo; details: 30 mg/Kg daily by oral gavage, two weeks
Method: C57BL6 mice were administered with 14 (30 mg/Kg daily by oral gavage) for two weeks.
C57BL6 mice were originally donated by Dr. Galya Vassileva (Schering-Plough Research Institute, Kenilworth). The colonies were maintained in the animal facility of University of Perugia. […] Mice were housed under controlled temperatures (22 °C) and photoperiods (12:12-h light/dark cycle), allowed unrestricted access to standard mouse chow and tap water and allowed to acclimate to these conditions for at least 5 days before inclusion in an experiment. The study was conducted in agreement with the Italian law and the protocol was approved by ethical committee of University of Perugia and by National committee of Ministry of Health (permission n. 42/2014-B). The Veterinarian monitored the health and body conditions of the animals daily in the animal facility. The study protocol caused minor suffering; however, animals that lost more than 25% of the initial body weight were euthanized. At the day of sacrifice mice were deeply anesthetized with a mixture of tiletamine […] and zolazepam […]/xylazine at a dose of 50/5 mg/Kg. Blood, liver and terminal ileum were collected for further analysis. Aspartate aminotransferase (AST), total cholesterol and triglycerides were measured by routine biochemical clinical chemistry. For histological examination, portions of liver lobes were fixed in 10% formalin, embedded in paraffin, sectioned (5 μm thin) and stained with Hematoxylin/Eosin (H&E) for morphometric analysis.

[4] = tested on: ABCA1 mRNA expression; assay: RT-PCR of LXRα target gene ABCA1 in HepG2 cells; details: Homo sapiens, HepG2, 18 h, read-out: EC50 for induction of ABCA1 gene expression
Method: (§1) HepG2 and Glutag cells were plated at 1 × 10^6 cells/well in a 6 well plate.
(§2) Total RNA was isolated from HepG2 or Glutag cells and from animal tissues (liver and terminal ileum) using the TRIzol reagent according to the manufacturer’s specifications (Invitrogen). One microgram of purified RNA was treated with DNase-I and reverse transcribed with Superscript II (Invitrogen). For Real Time PCR, 25 ng template was dissolved in 25 μL containing 200 nmol/L of each primer and 12.5 μL of 2 × SYBR FAST Universal ready mix (Invitrogen). […] The relative mRNA expression was calculated and expressed as 2^(−ΔΔCt).

[5] = tested on: SREBP1c mRNA expression; assay: RT-PCR of LXRα target gene SREBP1c in HepG2 cells; details: Homo sapiens, HepG2, 18 h, read-out: EC50 for induction of SREBP1c gene expression
Method: as §1, §2

[6] = tested on: pro-glucagon mRNA expression; assay: RT-PCR of GPBAR1 target gene pro-glucagon in Glutag cells; details: Mus musculus, 18 h, read-out: EC50 for induction of pro-glucagon mRNA
Method: as §1, §2

[7] = tested on: GPBAR1 (also known as TGR5); details: in vitro studies; cited from earlier work

Q: Which EC50 [1] does the source give for `CC(C)=CCCC(C)C1CCC2C3CC(O)C4CC(O)CCC4(C)C3CCC12C` (stereo not shown) [Compound 4] here?
A: Its EC50 is 6.99 ± 0.31 µM.

Q: With `CC(C)CCCC(C)C1CCC2C3CC(O)C4CC(O)CCC4(C)C3CCC12C` (stereo not shown) [Compound 5] as the compound, how does the Emax at 10 µM [1] read?
A: The Emax at 10 µM was 73%.

Q: And the EC50 [1]?
A: Its EC50 is 8.2 ± 0.16 µM.

Q: With `C=CCCC(C)C1CCC2C3CC(O)C4CC(O)CCC4(C)C3CCC12C` (stereo not shown) [Compound 8] as the compound, how does the EC50 [1] read?
A: Its EC50 is 2.7 ± 0.65 µM.

Q: For `CCCCC(C)C1CCC2C3CC(O)C4CC(O)CCC4(C)C3CCC12C` (stereo not shown) [Compound 9], which EC50 [1] is on record?
A: The EC50 was 5.1 ± 0.43 µM.

Q: For `CC(CCCCc1ccccc1)C1CCC2C3CC(O)C4CC(O)CCC4(C)C3CCC12C` (stereo not shown) [Compound 12], which Emax at 10 µM [1] is on record?
A: Its Emax at 10 µM is 63%.

Q: What about the EC50 [1] of the same compound?
A: Its EC50 is 12.4 ± 0.41 µM.

Q: Which results are given for `CC(C)=CCC(C)C1CCC2C3CC(O)C4CC(O)CCC4(C)C3CCC12C` (stereo not shown) [Compound 13]?
A: EC50 [2]: 4.2 ± 0.79 µM; EC50 [1]: 22.3 ± 3.05 µM

Q: For `CC(C)CCC(C)C1CCC2C3CC(O)C4CC(O)CCC4(C)C3CCC12C` (stereo not shown) [Compound 14], which EC50 [2] is on record?
A: The EC50 was 4.9 ± 0.2 µM.

Q: What about the Emax at 10 µM [1] of the same compound?
A: Its Emax at 10 µM is 109%.

Q: What about the EC50 [1] of the same compound?
A: Its EC50 is 3.2 ± 0.03 µM.

Q: And the “expression of GPBAR1 target genes GLP1 and Fgf21 in terminal ileum” value ([3]; Real-Time PCR)?
A: Its value is “increases”.

Q: What about the “liver expression of steatosis marker genes FAS, SREBP1c, CD36 and PPARs” value ([3]; Real-Time PCR on liver tissue) of the same compound?
A: Its value is “does not induce”.

Q: And the “liver histology (H&E staining), fat deposition” value ([3]; vs control)?
A: Its value is “no differences”.

Q: And the “plasmatic level of AST” value ([3]; vs control)?
A: The value was “no effects”.

Q: What about the “plasmatic level of cholesterol” value ([3]; vs control) of the same compound?
A: The value was “no effects”.

Q: And the “plasmatic level of triglycerides” value ([3]; vs control)?
A: Its value is “no effects”.

Q: And the EC50 [4]?
A: Its EC50 is 8.3 µM.

Q: What about the EC50 [5] of the same compound?
A: Its EC50 is 5.8 µM.

Q: And the EC50 [6]?
A: Its EC50 is 6.5 µM.

Q: With `C=CCC(C)C1CCC2C3CC(O)C4CC(O)CCC4(C)C3CCC12C` (stereo not shown) [Compound 15] as the compound, how does the EC50 [2] read?
A: Its EC50 is 3.7 ± 0.38 µM.

Q: For `C=CC(C)C1CCC2C3CC(O)C4CC(O)CCC4(C)C3CCC12C` (stereo not shown) [Compound 17], which EC50 [2] is on record?
A: The EC50 was 2.54 ± 0.015 µM.

Q: With `CCCC[C@@H](C)[C@H]1CCC2C3CC[C@@H]4C[C@H](O)CC[C@]4(C)C3CC[C@@]21C` (stereo partly shown) [Compound 20] as the compound, how does the EC50 [2] read?
A: The EC50 was 6.8 ± 0.08 µM.

Q: For `CC(C)=CCC[C@@H](C)[C@H]1CCC2C3CC[C@@H]4C[C@H](O)CC[C@]4(C)C3CC[C@@]21C` (stereo partly shown) [Compound 21], which EC50 [2] is on record?
A: Its EC50 is 5.9 ± 0.055 µM.

Q: Which EC50 [2] does the source give for `CC[C@@H](C)[C@H]1CCC2C3CC[C@@H]4C[C@H](O)CC[C@]4(C)C3CC[C@@]21C` (stereo partly shown) [Compound 24] here?
A: The EC50 was 0.91 ± 0.092 µM.

Q: For `CC(C)=CCC[C@@H](C)[C@H]1CCC2C3CC[C@H]4C[C@@H](O)CC[C@]4(C)C3CC[C@@]21C` (stereo partly shown) [Compound 25], which EC50 [2] is on record?
A: Its EC50 is 7.6 ± 0.71 µM.

Q: Which EC50 [2] does the source give for `C=CCC[C@@H](C)[C@H]1CCC2C3CC[C@H]4C[C@@H](O)CC[C@]4(C)C3CC[C@@]21C` (stereo partly shown) [Compound 27] here?
A: Its EC50 is 1 ± 0.062 µM.

Q: Which EC50 [2] does the source give for `C=C[C@@H](C)[C@H]1CCC2C3CC[C@H]4C[C@@H](O)CC[C@]4(C)C3CC[C@@]21C` (stereo partly shown) [Compound 29] here?
A: Its EC50 is 4.9 ± 0.06 µM.

Q: With `CC[C@@H](C)[C@H]1CCC2C3CC[C@H]4C[C@@H](O)CC[C@]4(C)C3CC[C@@]21C` (stereo partly shown) [Compound 30] as the compound, how does the EC50 [2] read?
A: The EC50 was 1.98 ± 0.145 µM.

Q: For `C[C@H](CCC(=O)O)[C@H]1CC[C@H]2[C@@H]3C[C@H](O)[C@@H]4C[C@H](O)CC[C@]4(C)[C@H]3CC[C@]12C` [HDCA, hyodeoxycholic acid], which EC50 [7] is on record?
A: The EC50 was 31.6 µM.
